The results in this text go back to BindingDB's records for doi:10.1021/jm960288w (Drew University, 1997).

Molecules are shown by their SMILES.

The nature of the assay: Compound was tested for inhibition of [3H]WIN-35428 binding at the dopamine transporter in brain from guinea pig striatal membrane.

The molecule `OC1(c2ccc(Cl)cc2)c2ccccc2C2=NCCCCN21` (configuration not stated) [7-(4-Chloro-phenyl)-2,4,5,7-tetrahydro-3H-[1,3]diazepino[2,1-a]isoindol-7-ol] displayed an IC50 of 2.7 nM.

As for `OC1(c2ccc(Cl)cc2)c2ccccc2C2=NCCCN21` (configuration not stated) [9-(4-Chloro-phenyl)-1,2,3,9-tetrahydro-4,9a-diaza-fluoren-9-ol], the IC50 came to 4.2 nM.

The term IC50 denotes the point on the concentration scale where inhibition reaches its midpoint. Read a high IC50 as a need for much substance.
